# Laboratory results reported in the METLIN SMRT retention time set (Domingo-Almenara et al. 2019).
# Test: gradient 5% acetonitrile 3 min, to 50% in 2 min, to 85% in 15 min, held 3 min, 100 µL/min
# Settings: column: Zorbax Extend-C18 2.1 x 50 mm; eluents: water / acetonitrile, 0.1% formic acid
# Summary of the method: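 Standards, all pure, were combined into mixtures of ~100 molecules and run at 100 μL/min on a Zorbax Extend-C18 column (2.1 × 50 mm, 1.8 μm) with water and acetonitrile, each containing 0.1% formic acid. A coupled quadrupole time-of-flight mass spectrometer operated in positive and negative ionization mode. Retention time values come from computationally picked adduct peaks, each inspected manually.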
row,RP-LC retention time [s],Structure (SMILES)
1,1310,CN(C)c1nc(Nc2ccc(F)cc2)c2cnn(-c3ccccc3)c2n1
2,934,Cc1ccc(OCc2nc3c4ccccc4ncn3n2)cc1
3,1110,CCOc1ccc(-c2nc(COc3cc(C)c4c(C)nn(C)c4n3)c(C)o2)cc1OC
4,1110,CCOC(=O)c1noc2ncnc(NCCc3ccc(Cl)cc3)c12
5,953,CN(CCc1noc(COc2ccc(Cl)cc2)n1)C(=O)NC(C)(C)C
6,1040,Cc1cc(C)c2c(-n3cccc3)nn(CC(=O)NCC(C)c3ccccc3)c2n1 (centres undefined)
7,809,Cc1cc(C)cc(NC(=O)N2CCC(n3cnc4ccccc4c3=O)CC2)c1
8,1030,O=C1CC(c2nc(-c3ccc(C(F)(F)F)cc3)no2)CN1c1ccc2c(c1)OCCO2 (centres undefined)
9,642,Cc1ncn(CC(=O)Nc2ccc(F)cc2F)c(=O)c1C
10,886,COc1ccc(-c2noc(C3CC(=O)N(c4ccc5c(c4)OCO5)C3)n2)cc1OC (centres undefined)
11,880,CCCN(Cc1ccsc1)C(=O)c1ccc(OC)c(OC)c1OC
12,544,COc1cn(CC(=O)NCc2ccco2)c(CO)cc1=O
13,738,CN(C)c1ccc(C(=O)Nc2cc(-c3cccnc3)no2)cc1
14,921,CCOC(=O)CC(=O)Nc1nc(C2COc3ccccc3O2)cs1 (centres undefined)
15,630,CCc1ccc2[nH]c3c(c(=O)c2c1)CN(CC(=O)NC1CCCCC1)CC3
16,739,CCc1ccc(OCC(O)Cn2c(C3CC3)nc3ccccc32)cc1 (centres undefined)
17,612,COCc1noc([C@@H]2CN(Cc3cccc(OC)n3)C[C@H]2COC)n1
18,756,COC(=O)c1cc(OCC(=O)Nc2ccccc2F)c2cc(OC)c(OC)cc2n1
19,786,CCc1noc(NC(C)=O)c1-c1ccc(OC)c(S(=O)(=O)NCc2cccc(OC)c2)c1
20,937,COC(=O)c1cccc(NC(=O)N(C)CCc2noc(C3CCCCC3)n2)c1
21,760,O=C(NCc1ccccc1)C1CCN(S(=O)(=O)c2cc(C(=O)N3CCCC3)cs2)CC1
22,749,COc1ccc(-c2nnc(-c3ccc(C)c(S(=O)(=O)NC(C)(C)CO)c3)o2)cc1OC

row,RP-LC retention time [s],Structure (SMILES)
1,626,c1ccc2c(OCc3nc4ccccc4[nH]3)cccc2c1
2,1010,COc1ccc(-c2nnc(Cc3nc(-c4ccccc4C)no3)o2)cc1
3,916,Brc1cn2c(Nc3ccc4c(c3)OCCO4)c(-c3ccccc3)nc2cn1
4,816,COc1ccc(NC(=O)N2c3ccccc3NC3=C(C(=O)CCC3)C2c2ccco2)c(OC)c1 (centres undefined)
5,1080,O=S(=O)(NC1CCCCCC1)c1ccc(-c2nnc(C3CCCC3)o2)o1
6,670,Cn1c(=O)n(C)c2cc(N3CCCC3)c(NC(=O)Cc3ccccc3)cc21
7,1080,Cc1ccc2c(c1)N(Cc1ccccc1)N=C(C(=O)N1CCC(C)CC1)S2(=O)=O
8,772,COc1ccccc1NC(=O)Cn1c(C)nc2onc(C)c2c1=O
9,766,CC1(C(=O)NC2CCCCCC2)Cn2c(cc3occc32)C(=O)N1Cc1ccccn1 (centres undefined)
10,909,Cc1noc([C@@H]2CC(F)(F)CN2S(=O)(=O)c2ccccc2C)n1
11,576,CNc1nccc(N2CCC(CC(=O)O)CC2)n1
12,870,COc1ccc(S(=O)(=O)N2CCCC(C(=O)NCCc3ccc(OC)c(OC)c3)C2)cc1C (centres undefined)
13,813,Cc1c(S(=O)(=O)NCCC2CCN(C(=O)c3ccc(F)cc3)CC2)cnn1C(F)F
14,644,COCCC(=O)N1CCCn2nc(-c3cccc(OC)c3)cc2C1
15,1200,CCN(Cc1ccccc1)S(=O)(=O)c1cc(-c2nc(C)cs2)sc1C
16,1020,Cc1sc(NC(=O)COc2ccc(Cl)cc2)nc1-c1ccc2c(c1)NC(=O)C(C)O2 (centres undefined)
17,793,CSc1ccc(-c2nc3cnccn3c2Nc2cccc(C(=O)NCc3ccco3)c2)cc1
18,698,CCc1ccc(NC(=O)N2CCN(c3cnn4c(CC)nnc4c3)CC2)cc1
19,824,Cc1ccc(CNC(=O)C2(C)Cn3nc(C(=O)NCc4cccc(C)c4)cc3C(=O)N2C)cc1 (centres undefined)
20,730,CS(=O)(=O)N1CCC(OC2CCN(C(=O)NCc3cccc(F)c3)CC2)CC1
21,700,Cc1ccc(-c2cc(OCC(N)=O)c3cc(NC(=O)COc4ccccc4)ccc3n2)cc1
22,628,COc1ccc(N2CCN(C(=O)C3CCN(S(=O)(=O)c4cn(C)cn4)CC3)CC2)cc1

row,RP-LC retention time [s],Structure (SMILES)
1,1060,CCc1nc(-c2csc(S(=O)(=O)N3CCCC(C(=O)N4CCc5ccccc5C4)C3)c2)no1 (centres undefined)
2,956,Cc1ccc(NC(=O)c2cnc3c(c2)c(=O)n(C)c(=O)n3-c2ccccc2)cc1F
3,959,O=C(c1cc2ccccc2[nH]1)N1CCC2(CC1)N=C(c1ccc(Br)cc1)NO2
4,930,CCc1nc(-c2csc(S(=O)(=O)N3CCC(C(=O)Nc4ccc(OC)cc4)CC3)c2)no1
5,965,Cc1ccc(CCNC(=O)CN2C(=O)CSc3cccn3-c3ccccc32)cc1
6,623,COc1ccc(-c2cc(N3CCN(C(=O)NCC(C)C)CC3)ncn2)cc1OC
7,758,CCCN(CC1CCOC1)C(=O)NCc1ccc(F)cc1 (centres undefined)
8,895,O=C(NCCc1ccccc1)C1CN(S(=O)(=O)c2cccnc2)CC12CCCCC2 (centres undefined)
9,1170,COc1ccc(NC(=O)c2noc3c2CCCC3)c(OC)c1
10,590,CN(C)CCNc1nc(-c2ccc(C(C)(C)C)cc2)nc2ccccc12
11,1150,Cn1nccc1-c1cccc(-c2noc(Cc3ccc(Br)cc3)n2)c1
12,754,Cc1ccc(-c2ncc(C(=O)N(C)C)c(-c3ccncc3)n2)cc1
13,865,CCOc1ccccc1CNC(=O)Cn1c(CC)nc2onc(C)c2c1=O
14,764,COc1cccc(C(=O)Nc2ccc(CC(=O)NCC(F)(F)F)cc2)c1OC
15,687,Cc1ccc(F)c(NS(=O)(=O)c2cc3n(c2)CCCN(C)C3=O)c1
16,580,COc1cccc(CN2CCc3nn(Cc4ccccc4)c(=O)n3CC2)n1
17,650,CCn1c(C2CC(=O)N(Cc3ccccc3)C2)nc2ccccc21 (centres undefined)
18,540,COc1ccc(C(O)CN2CCN(C3CCCCC3)CC2)cc1 (centres undefined)
19,688,COc1ccc(-c2noc(-c3cccn(CC(=O)NC(C)C)c3=O)n2)cc1OC
20,1230,Cc1cc(NC(=O)CCc2nc(-c3ccc(N4CCCC4)cc3)no2)ccc1Br
21,808,CC(=O)N(Cc1nn(C)c2c1CN(S(=O)(=O)c1ccc(F)cc1F)CC2)c1ccccc1
22,848,O=C(Cn1nc(-c2nc(-c3ccc(Cl)cc3)no2)ccc1=O)N1CCCC1

row,RP-LC retention time [s],Structure (SMILES)
1,894,CCc1nc2ccccc2c(=O)n1Cc1noc(-c2ccc(OC)c(OC)c2)n1
2,657,Cc1cc(-c2cc(S(=O)(=O)N3CCN(C4CCCCC4)CC3)c(C)s2)n[nH]1
3,592,Cc1cc(C(=O)NC(C)C)n[nH]1
4,772,CC(=O)N1CCc2cc(N3CC(C(=O)Nc4cc(F)cc(F)c4)CC3=O)ccc21 (centres undefined)
5,887,COc1ccc(NC(=O)C2=C(C)C(=O)OC23CCCCCC3)cc1OC
6,907,c1ccc(-c2nc3nccc(-c4ccccc4)n3n2)cc1
7,816,CCc1ccccc1S(=O)(=O)Nc1ccc2c(c1)CCC(=O)N2CCOC
8,802,O=C(CSc1nnc(NC(=O)C2CCCCC2)s1)Nc1ccc2c(c1)OCO2
9,681,Cc1[nH]c(C(=O)N2CCCC(C(=O)NCc3ccc(N(C)C)cc3)C2)c(C)c1C(=O)OC(C)C (centres undefined)
10,996,Cc1nn(-c2ccc(Cl)nn2)c(C)c1Cl
11,1120,O=C(Cn1cccc1-c1nnc(-c2ccccc2)o1)N1CCN(c2cccc(Cl)c2)CC1
12,916,O=C(COc1ccc(Br)cc1)Nc1ccnn1Cc1cccs1
13,588,Cc1c(-c2ccnc(N3CCN(Cc4ccccc4)CC3)n2)cnc2ncnn12
14,724,O=C1NCCCn2cc(S(=O)(=O)N3CCN(c4ccccc4)CC3)cc21
15,567,CN(C)c1ncncc1N1CCC(C(=O)N2CCOCC2)CC1
16,668,CCC1CN2C=Nc3oc(C)c(C(=O)Nc4ccccc4OC)c3C2=N1 (centres undefined)
17,828,COCCn1cnc2c(-c3ccccc3)cn(CC(=O)NCc3ccc4c(c3)OCO4)c2c1=O
18,638,COc1ccc(CCS(=O)(=O)NCC2CCN(C(=O)c3cccn(C)c3=O)CC2)cc1
19,552,O=C([C@@H]1C[C@H](Oc2cccnc2)CN1C(=O)c1cnccn1)N1CCCC1
20,848,O=C(NC1CC1)c1ccccc1OCC1CCN(C(=O)c2cc(F)cc(F)c2)CC1

row,Structure (SMILES),RP-LC retention time [s]
1,C/C=C(\C)C(=O)O[C@H]1CC[C@@]2(C)[C@@H]3CC[C@H]4[C@]5(O)C[C@H](O)[C@@]6(O)[C@@H](CN7C[C@@H](C)CC[C@H]7[C@@]6(C)O)[C@]5(O)C[C@@]42O[C@]13O,692
2,CN1C2CCC1CC(OC(c1ccccc1)c1ccccc1N)C2 (centres undefined),752
3,CO[C@@H]1C=C2CCN(C)[C@@H]2C2c3cc4c(cc3C(=O)O[C@H]21)OCO4 (some centres undefined),636
